In patent publication US20240158446A1, “CYCLIC COMPOUND HAVING SELECTIVE INHIBITORY ACTION ON KRAS OVER HRAS AND NRAS” (CHUGAI SEIYAKU KABUSHIKI KAISHA, priority 2021, published 2024):
Read-outs that look alike come from different tables or passages of the source.

Columns and labels:
[1] = biological target: GDP-bound HRAS wild-type protein (Homo sapiens, UniProt P01112); experiment: Binding to HRAS by surface plasmon resonance (SPR), Single Cycle Kinetics; conditions: for HRAS/KRAS (ratio of KD value for HRAS to KD value for KRAS): SPR, GDP-bound HRAS wild-type protein vs GDP-bound KRAS wild-type protein
[2] = test system: human lung cancer strain NCI-H441;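 note: cell proliferation inhibition after four days measured by CellTiter-Glo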
[3] = biological target: GDP-bound NRAS wild-type protein (Homo sapiens, UniProt P01111); experiment: Binding to NRAS by surface plasmon resonance (SPR), Single Cycle Kinetics; conditions: for NRAS/KRAS (ratio of KD value for NRAS to KD value for KRAS): SPR, GDP-bound NRAS wild-type protein vs GDP-bound KRAS wild-type protein
[4] = biological target: GDP-bound KRAS wild-type protein (Homo sapiens, UniProt P01116); experiment: Binding to KRAS by surface plasmon resonance (SPR), Single Cycle Kinetics; conditions: GDP-bound KRAS wild-type protein, read-out: KRAS KD
[5] = SPR, Single Cycle Kinetics, 1:1 binding model

Sequence of GDP-bound NRAS wild-type protein (P01111 whole entry): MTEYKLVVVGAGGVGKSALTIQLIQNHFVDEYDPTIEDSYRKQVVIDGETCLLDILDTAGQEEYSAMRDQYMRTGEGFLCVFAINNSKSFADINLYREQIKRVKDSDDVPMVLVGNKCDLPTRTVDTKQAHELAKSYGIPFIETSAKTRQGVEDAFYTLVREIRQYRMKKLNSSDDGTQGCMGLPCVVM
Sequence of GDP-bound HRAS wild-type protein (P01112 whole entry): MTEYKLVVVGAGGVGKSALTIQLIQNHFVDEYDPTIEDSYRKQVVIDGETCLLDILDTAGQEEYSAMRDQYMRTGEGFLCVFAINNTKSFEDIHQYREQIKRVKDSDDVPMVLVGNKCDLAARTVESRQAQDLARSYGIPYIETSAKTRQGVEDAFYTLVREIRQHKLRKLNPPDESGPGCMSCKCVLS
Sequence of GDP-bound KRAS wild-type protein (P01116 whole entry): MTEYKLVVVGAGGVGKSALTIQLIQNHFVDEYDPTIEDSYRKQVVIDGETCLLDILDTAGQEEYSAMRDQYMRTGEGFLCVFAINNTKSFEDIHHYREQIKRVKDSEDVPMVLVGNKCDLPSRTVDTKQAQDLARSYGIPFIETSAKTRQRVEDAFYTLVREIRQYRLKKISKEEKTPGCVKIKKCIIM

| SMILES | HRAS/KRAS (ratio of KD value for HRAS to KD value for KRAS) ([1]; KD ratio class) | IC50 [2] [nM] | NRAS/KRAS (ratio of KD value for NRAS to KD value for KRAS) ([3]; KD ratio class) | Kd [4, 5] [nM] | HRAS/KRAS (ratio of KD value for HRAS to KD value for KRAS) [1] | NRAS/KRAS (ratio of KD value for NRAS to KD value for KRAS) [3] | Kd ([4]; SPR, Single Cycle Kinetics) [nM] | HRAS/KRAS (ratio of KD value with respect to GDP-bound HRAS wild-type protein to KD value with respect to KRAS) ([1]; SPR KD ratio HRAS/KRAS, class symbols) | NRAS/KRAS (ratio of KD value with respect to GDP-bound NRAS wild-type protein to KD value with respect to KRAS) ([3]; SPR KD ratio NRAS/KRAS, class symbols) | Kd ([4]; SPR Single Cycle Kinetics, 1:1 binding model) [nM] |
| --- | --- | --- | --- | --- | --- | --- | --- | --- | --- | --- |
| CCO[C@@H]1C[C@H]2C(=O)NC3(CCC3)C(=O)N(C)[C@@H](C(CC)CC)C(=O)N(C)[C@H](C(=O)N(C)C)CC(=O)N(C)[C@@H](COC)C(=O)N[C@@H]([C@@H](C)CC)C(=O)N(C)CC(=O)N(C)[C@H]3C/C=C\CCN(C3=O)[C@@H](Cc3ccc(C(F)(F)F)cc3)C(=O)N(C)CC(=O)N[C@@H](CCc3cc(F)c(C(F)(F)F)c(F)c3)C(=O)N2C1 [PP1205] | A (a compound having 10 or more and less than 20 is denoted as A) | 25.4 | AA (a compound having 20 or more is denoted as AA) | 0.16 | – | – | – | – | – | – |
| CCOC[C@H]1C(=O)N[C@@H]([C@@H](C)CC)C(=O)N(C)CC(=O)N(C)[C@H]2C/C=C\CCN(C2=O)[C@@H](Cc2ccc(C)cc2)C(=O)N(C)CC(=O)N[C@@H](CCc2ccc(C(F)(F)F)c(Cl)c2)C(=O)N2C[C@@H](C)C[C@H]2C(=O)NC2(CC(C)(C)C2)C(=O)N(C)[C@@H](C2CCCC2)C(=O)N(C)[C@H](C(=O)N(C)C)CC(=O)N1C [PP2394] | – | 8.3 | – | – | B (a compound having 3 or more and less than 10 is denoted as B) | A (a compound having 10 or more and less than 20 is denoted as A) | 0.12 | – | – | – |
| CC[C@H](C)[C@@H]1NC(=O)[C@H](COC)N(C)C(=O)C[C@@H](C(=O)N(C)C)N(C)C(=O)[C@H](C2CCCCC2)N(C)C(=O)C2(CC(C)(C)C2)NC(=O)[C@@H]2C[C@@H](OC(C)C)CN2C(=O)[C@H](CCc2cc(F)c(C(F)(F)F)c(F)c2)NC(=O)CN(C)C(=O)[C@H](Cc2ccc(C)cc2)N2CC/C=C\C[C@@H](C2=O)N(C)C(=O)CN(C)C1=O [PP2660] | – | 14.3 | – | – | – | – | – | A (a compound having 10 or more and less than 20 is denoted as A) | A (a compound having 10 or more and less than 20 is denoted as A) | 0.18 |
| CCO[C@@H]1C[C@H]2C(=O)NC3(CCC3)C(=O)N(C)[C@@H](C3CCCC3)C(=O)N(C)[C@H](C(=O)N(C)C)CC(=O)N(C)[C@@H](CC(C)C)C(=O)N[C@@H]([C@@H](C)CC)C(=O)N(C)CC(=O)N(C)[C@H]3C/C=C\CCN(C3=O)[C@@H](Cc3ccc(F)cc3C)C(=O)N(C)CC(=O)N[C@@H](CCc3cc(F)c(Cl)c(F)c3)C(=O)N2C1 [PP1481] | B (a compound having 3 or more and less than 10 is denoted as B) | 14.8 | A (a compound having 10 or more and less than 20 is denoted as A) | 1.2 | – | – | – | – | – | – |
| CCO[C@@H]1C[C@H]2C(=O)NC3(CC(C)(C)C3)C(=O)N(C)[C@@H](C3CCCC3)C(=O)N(C)[C@H](C(=O)N(C)C)CC(=O)N(C)[C@@H](COC)C(=O)N[C@@H]([C@@H](C)CC)C(=O)N(C)CC(=O)N(C)[C@H]3C/C=C\CCN(C3=O)[C@@H](Cc3ccc(C)cc3)C(=O)N(C)CC(=O)N[C@@H](CCc3cc(F)c(C(F)(F)F)c(F)c3)C(=O)N2C1 [PP2391] | – | 8.9 | – | – | A (a compound having 10 or more and less than 20 is denoted as A) | A (a compound having 10 or more and less than 20 is denoted as A) | 0.043 | – | – | – |
| CCO[C@@H]1C[C@H]2C(=O)NC3(CCC3)C(=O)N(C)[C@@H](C3CCCC3)C(=O)N(C)[C@H](C(=O)N3CCOCC3)CC(=O)N(C)[C@@H](CC(C)C)C(=O)N[C@@H]([C@@H](C)CC)C(=O)N(C)CC(=O)N(C)[C@H]3C/C=C\CCN(C3=O)[C@@H](Cc3ccc(C)cc3)C(=O)N(C)CC(=O)N[C@@H](CCc3cc(F)c(C(F)(F)F)c(F)c3)C(=O)N2C1 [PP1415] | A (a compound having 10 or more and less than 20 is denoted as A) | 9.5 | A (a compound having 10 or more and less than 20 is denoted as A) | 0.25 | – | – | – | – | – | – |
| CCC[C@H]1C(=O)N[C@@H]([C@@H](C)CC)C(=O)N(C)CC(=O)N(C)[C@H]2C/C=C\CCN(C2=O)[C@@H](Cc2ccc(C(F)(F)F)cc2)C(=O)N(C)CC(=O)N[C@@H](CCc2ccc3sccc3c2)C(=O)N2C[C@H](OCC)C[C@H]2C(=O)NC2(CCC2)C(=O)N(C)[C@@H](C2CCCC2)C(=O)N(C)[C@H](C(=O)N(C)C)CC(=O)N1C [PP1256] | A (a compound having 10 or more and less than 20 is denoted as A) | 69 | A (a compound having 10 or more and less than 20 is denoted as A) | 0.36 | – | – | – | – | – | – |
| CCO[C@@H]1C[C@H]2C(=O)NC3(CCC3)C(=O)N(C)[C@@H](C3CCCC3)C(=O)N(CC)[C@H](C(=O)N3CCOCC3)CC(=O)N(C)[C@@H](CC)C(=O)N[C@@H]([C@@H](C)CC)C(=O)N(C)CC(=O)N(C)[C@H]3C/C=C\CCN(C3=O)[C@@H](Cc3ccc(C(F)(F)F)cc3)C(=O)N(C)CC(=O)N[C@@H](CCc3cc(F)c(C(F)(F)F)c(F)c3)C(=O)N2C1 [PP0979] | – | 281 | – | – | A (a compound having 10 or more and less than 20 is denoted as A) | AA (a compound having 20 or more is denoted as AA) | 1.7 | – | – | – |
| CCOC[C@H]1C(=O)N[C@@H]([C@@H](C)CC)C(=O)N(C)CC(=O)N(C)[C@H]2C/C=C\CCN(C2=O)[C@@H](Cc2ccc(C)cc2)C(=O)N(C)CC(=O)N[C@@H](CCc2cc(F)c(C(F)(F)F)c(F)c2)C(=O)N2C[C@@H](C)C[C@H]2C(=O)NC2(CC(C)(C)C2)C(=O)N(C)[C@@H](C2CCCC2)C(=O)N(C)[C@H](C(=O)N(C)C)CC(=O)N1C [PP2439] | – | 6.6 | – | – | A (a compound having 10 or more and less than 20 is denoted as A) | A (a compound having 10 or more and less than 20 is denoted as A) | 0.12 | – | – | – |
| CCCC[C@H]1C(=O)N[C@@H]([C@@H](C)CC)C(=O)N(C)CC(=O)N(C)[C@H]2C/C=C\CCN(C2=O)[C@@H](Cc2ccc(C(F)(F)F)cc2)C(=O)N(C)CC(=O)N[C@@H](CCc2cc(F)c(C(F)(F)F)c(F)c2)C(=O)N2C[C@H](OCC)C[C@H]2C(=O)NC2(CCCC2)C(=O)N(C)[C@@H](C2CCCC2)C(=O)N(C)[C@H](C(=O)N(C)C)CC(=O)N1C [PP1397, (2S,8S,12R,14S,20S,23S,27S,30S,36S,38Z)-27-butyl-20-cyclopentyl-8-[2-[3,5-difluoro-4-(trifluoromethyl)phenyl]ethyl]-12-ethoxy-N,N,4,19,22,26,32,35-octamethyl-30-[(1S)-1-methylpropyl]-3,6,9,15,18,21,25,28,31,34,42-undecaoxo-2-[[4-(trifluoromethyl)phenyl]methyl]spiro[1,4,7,10,16,19,22,26,29,32,35-undecazatricyclo[34.5.1.0^10,14]dotetracont-38-ene-17,1′-cyclopentane]-23-carboxamide] | A (a compound having 10 or more and less than 20 is denoted as A) | 3.7 | A (a compound having 10 or more and less than 20 is denoted as A) | 0.073 | – | – | – | – | – | – |
| CCO[C@@H]1C[C@H]2C(=O)NC3(CCC3)C(=O)N(C)[C@@H](C3CCCC3)C(=O)N(C)[C@H](C(=O)N(C)C)CC(=O)N(C)[C@@H](Cc3ccccc3C#N)C(=O)N[C@@H]([C@@H](C)CC)C(=O)N(C)CC(=O)N(C)[C@H]3CCCCCN(C3=O)[C@@H](Cc3ccc(F)cc3)C(=O)N(C)CC(=O)N[C@@H](CCc3cc(F)c(C(F)(F)F)c(F)c3)C(=O)N2C1 [PP1155] | – | 73.1 | – | – | B (a compound having 3 or more and less than 10 is denoted as B) | B (a compound having 3 or more and less than 10 is denoted as B) | 0.15 | – | – | – |
| CCO[C@@H]1C[C@H]2C(=O)NC3(CCC3)C(=O)N(C)[C@@H](C3CCCC3)C(=O)N(C)[C@H](C(=O)N3CCOCC3)CC(=O)N(C)[C@@H](Cc3ccc(C#N)cc3)C(=O)N[C@@H]([C@@H](C)CC)C(=O)N(C)CC(=O)N(C)[C@H]3CCCCCN(C3=O)[C@@H](Cc3ccc(C(F)(F)F)cc3)C(=O)N(C)CC(=O)N[C@@H](CCc3cc(F)c(C(F)(F)F)c(F)c3)C(=O)N2C1 [PP1167] | – | 134 | – | – | B (a compound having 3 or more and less than 10 is denoted as B) | B (a compound having 3 or more and less than 10 is denoted as B) | 0.5 | – | – | – |
